Values quoted from earlier work, collected in patent US20220134131A1, “ENERGY AUGMENTATION STRUCTURES FOR MEASURING AND THERAPEUTIC USES” (IMMUNOLIGHT, LLC, priority 2019, published 2022).

Test system: HT-29 cells

OO [H2O2, hydrogen peroxide]
effect of application on HT-29 cells: caused their death
